Reference: patent US6159700A, “Method of finding agonist and antagonist to human and rat GPR14” (SmithKline Beecham Corporation, priority 1999, dated 2000)
Positions count from the first letter of the chain named. Bridge positions count the residues as written; N and C are the ends. Peptide text beside a SMILES is read from it.

Tests used:
[1] = target: T1, rat GPR14 receptor (Rattus norvegicus, UniProt P49684); test: Binding to rat GPR14 receptor; conditions: compared with Human GPR14
T1 sequence (P49684 1-386): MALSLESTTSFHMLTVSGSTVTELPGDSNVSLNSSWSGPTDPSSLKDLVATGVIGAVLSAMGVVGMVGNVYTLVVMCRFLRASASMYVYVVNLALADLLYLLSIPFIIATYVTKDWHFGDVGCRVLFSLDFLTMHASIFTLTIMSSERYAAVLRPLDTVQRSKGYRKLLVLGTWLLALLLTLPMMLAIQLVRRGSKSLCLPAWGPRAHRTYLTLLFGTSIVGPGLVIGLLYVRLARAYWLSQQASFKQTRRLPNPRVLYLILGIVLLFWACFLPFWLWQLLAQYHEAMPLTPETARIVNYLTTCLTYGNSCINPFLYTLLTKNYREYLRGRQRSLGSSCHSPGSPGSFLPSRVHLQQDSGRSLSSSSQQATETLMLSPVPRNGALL
Excerpt: Ligand binding assays provide a direct method for ascertaining receptor pharmacology and are adaptable to a high throughput format. The purified ligand for a receptor is radiolabeled to high specific activity (50-2000 Ci/mmol) for binding studies. […] Assay conditions for buffers, ions, pH and other modulators such as nucleotides are optimized to establish a workable signal to noise ratio for both membrane and whole cell receptor sources. For these assays, specific receptor binding is defined as total associated radioactivity minus the radioactivity measured in the presence of an excess of unlabeled competing ligand. Where possible, more than one competing ligand is used to define residual nonspecific binding.

[2] = Vasoconstrictor potency; conditions: mammalian
[3] = test system: intact primate; test: Effects in the intact primate; assay type: in vivo
[4] = target: T2, Human GPR14 (human); test: cell-based or functional assay
T2 chain: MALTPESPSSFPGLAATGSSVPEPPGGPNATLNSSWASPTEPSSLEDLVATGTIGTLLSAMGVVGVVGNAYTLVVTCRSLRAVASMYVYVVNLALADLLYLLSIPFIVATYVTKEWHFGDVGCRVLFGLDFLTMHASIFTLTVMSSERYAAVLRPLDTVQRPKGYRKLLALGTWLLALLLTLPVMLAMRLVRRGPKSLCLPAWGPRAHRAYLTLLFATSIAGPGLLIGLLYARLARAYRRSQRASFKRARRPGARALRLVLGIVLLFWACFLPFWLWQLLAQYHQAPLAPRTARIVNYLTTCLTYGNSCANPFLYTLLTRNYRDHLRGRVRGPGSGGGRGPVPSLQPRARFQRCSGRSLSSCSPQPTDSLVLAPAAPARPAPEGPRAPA

[5] = target: T3, Rat GPR14 receptor (rat); test: cell-based or functional assay
T3 chain: T1 sequence (P49684 1-386) with F315L

## CC(C)[C@H](NC(=O)[C@@H]1CSSC[C@H](NC(=O)[C@H](CC(=O)O)NC(=O)[C@H](C)NC(=O)[C@@H](NC(=O)CNC(=O)[C@H](C)N)[C@@H](C)O)C(=O)N[C@@H](Cc2ccccc2)C(=O)N[C@@H](Cc2c[nH]c3ccccc23)C(=O)N[C@@H](CCCCN)C(=O)N[C@@H](Cc2ccc(O)cc2)C(=O)N1)C(=O)O [fish urotensin II] (H-AGTADCFWKYCV-OH; disulfide 6-11 (inferred); N-terminus and C-terminus assumed)
[1]
  binding to rat GPR14 receptor: binds equally well to rat GPR14 receptor

## CC(C)[C@H](NC(=O)[C@@H]1CSSC[C@H](NC(=O)[C@H](CC(=O)O)NC(=O)[C@@H]2CCCN2C(=O)[C@@H](NC(=O)[C@@H](N)CCC(=O)O)[C@@H](C)O)C(=O)N[C@@H](Cc2ccccc2)C(=O)N[C@@H](Cc2c[nH]c3ccccc23)C(=O)N[C@@H](CCCCN)C(=O)N[C@@H](Cc2ccc(O)cc2)C(=O)N1)C(=O)O [human urotensin II]
[1]
  binding to rat GPR14 receptor: binds equally well to rat GPR14 receptor
[2]
  vasoconstrictor potency: most potent mammalian vasoconstrictor identified to date
[3]
  cardiovascular effects in vivo: induces systemic vasoconstriction, myocardial contractile dysfunction and, ultimately, lethal arrhythmias

## ETPDCFWKYCV [Human urotensin II]
[4]
  EC50 of calcium mobilization: 0.1 to 0.2 nM

## AGTADCFWKYCV [Fish urotensin II]
[4]
  EC50 of calcium mobilization (FLIPR): 0.5 nM
[5]
  EC50 of calcium mobilization (FLIPR): 0.8 nM
